“Also recorded” adds a separate entry of the source.
How the values were obtained:
NCI-H716 cells = assay: Extracellular oxygen consumption rate assay (Seahorse XF96); assay type: cell-based, human
Description: Briefly, NCI-H716 cells were seeded in XF 96-well cell culture microplates (Seahorse Bioscience) at 6.0×10^4 cells per well in 150 μl of growth medium and then incubated at 37° C./5% CO2 for 24 hr. A Seahorse Bioscience instrument model XF96 was used to measure the rate of change of dissolved oxygen in the media surrounding the cells. All procedures followed manufacturer's instructions. […] Conversely, treatment with the FXR antagonist guggulsterone reduced basal respiratory rates and the FCCP-induced maximum respiration rate (FIGS. 9A and 9B). To examine the effects of FXR activity on the secretion of GLP-1, the metabolic changes induced in human L cells was measured after treatment with the FXR agonist, fexaramine and an FXR antagonist, guggulsterone. Treatment of L cells with fexaramine (1 μM for 24 hours) lead to an increase in the oxygen consumption rate (OCR), consistent with increased mitochondrial activity and consequently, an increased energetic state (FIG. 9A). The reverse effect was seen after treatment with the FXR antagonist, guggulsterone, with lower OCR after drug treatment.

Human intestinal L cells = assay: maintenance of ATP levels under bethanechol chloride; assay type: cell-based; details: L cells incubated with bethanechol chloride; DMSO-treated L cells 67%
Description: To further examine how this increase in respiratory capacity affects L cell bioenergetics, the maintenance of ATP levels under energetic demanding conditions was evaluated. Human intestinal L cells treated with DMSO or Fex were incubated with the muscarinic receptor agonist bethanechol chloride and residual ATP levels determined. […] Fex-treated L cells were able to maintain 83% of the initial ATP abundance whereas DMSO-treated L cells were able to maintain 67% (FIG. 7D). Thus, Fex enhances overall mitochondrial bioenergetics in enteroendocrinal L cells.

[1] = tested on: human enteroendocrinal L cells (NCI-H716); assay: In vitro GLP-1 secretion assay; assay type: cell-based; details: L cells pretreated with compound
Description: In vitro GLP-1 secretion assay was performed in human enteroendocrinal L cells (NCI-H716). For each secretion assay, cells were seeded at 1×10^5 cells/ml (1 ml/well) in a matrigel-coated 24-well plate. Prior to GLP-1 secretion assay, cells were pre-treated with DMSO, 1 μM Fex, or 1 μM Fex-D overnight. Cells were deprived in Krebs buffer (with 0.1% BSA) with dipeptidyl peptidase (DPP)-4 inhibitor ([…] sitagliptin). GLP-1 was measured with a commercial kit (EZGLP1T-36K, Millipore). For in vivo GLP-1 secretion, each animal was gavaged with 25 mg per kg of body weight sitagliptin 60-minutes before glucose load. Blood was collected from the tail vein at the indicated intervals, and transferred to serum collection tubes containing sitagliptin.

enteroendocrinal L cells = assay: Gene expression analysis (QPCR) in enteroendocrinal L cells; assay type: cell-based, human
[2] = tested on: Leptin-deficient ob/ob mice; assay: metabolic phenotype and glucose homeostasis of treated ob/ob mice; assay type: in vivo, mouse
Description: Leptin-deficient ob/ob mice were purchased from Jackson laboratory (stock no. 000632). Each mouse consumed 100 mg per kg of body weight Fex (in corn oil) per day by oral gavage for 5 weeks. For in vivo analog study, each mouse consumed 50 mg per kg of body weight Fex-D (in corn oil) per day by oral gavage for 14 days. For GLP-1 receptor antagonist study, each mouse was daily treated with 100 μg per kg of body weight Exendin 9-39 amide (Abcam) via intraperitoneal injection for 2 weeks. For INT-777 study, each mouse was daily gavaged with 60 mg per kg of body weight INT-777 (in corn oil) for 5 weeks. For FGF15 study, each mouse was daily treated with 0.25 mg per kg of body weight FGF15 (in PBS with 0.1% BSA) via intravenous injection for 2 weeks. The sample sizes for all animal studies are indicated in each figure legend. All mice were housed in a specific pathogen-free facility with a 12-h light, 12-h dark cycle and given free access to food and water. All in vivo data were retrieved from 3 independent experimental animal cohorts. Core body temperature was measured with a clinical rectal thermometer (Thermalert model TH-5; Physitemp). For GTTs, 6-h fasted mice received 2 g of glucose per kg of body weight by oral gavage. Human insulin (Humilin, Eli Lilly) was used for insulin sensitivity test. Tail blood was drawn at indicated time intervals, and blood glucose level was measured with a One Touch Ultra glucometer (LifeScan). Body composition was measured with Echo MRI-100 body composition analyzer (Echo Medical Systems). All mice were randomly assigned to experimental groups for further analysis. No samples were excluded from the analysis.
Real-time metabolic analyses were conducted in a Comprehensive Lab Animal Monitoring System (Columbus Instruments). CO2 production, O2 consumption, RQ (relative rates of carbohydrate versus fat oxidation) and ambulatory counts were determined for 4 consecutive days and nights, with at least 24-h for adaptation before data recording.
To investigate the effect of Fex treatment in a diabetic mouse model, leptin-deficient obese mice (ob/ob) were subjected to daily treatment by oral gavage (100 mg/kg) for 5 weeks. […] Gene expression analysis confirmed the induction of UCP1 as well as a number of genes involved in β-oxidation, thermogenesis and oxidative phosphorylation (FIG. 1B-1D).

[3] = tested on: pancreatic islets from ob/ob mice; assay: Insulin secretion assay on isolated pancreatic islets (ex vivo); assay type: cell-based, mouse; details: islets from Fex-treated mice
Description: Mouse pancreatic islets were isolated from ob/ob mice according to a method used for rats traditionally. Briefly, 0.5 mg/ml collagenase P (Roche) diluted in HBSS buffer was injected through the common bile duct and the perfused pancreas was dissected and incubated in water bath with 37° C. for 21 minutes. Digested exocrine cells and intact islets were separated using Histopaque-1077 (SIGMA) with centrifugation by 900 g for 15 minutes and intact islets were picked up manually.
Insulin release from intact islets was monitored using batch incubation methods.
Isolated pancreatic islets were cultured over-night with […] supplemented with 10% (v/v) fetal bovine serum and 1% (v/v) Antibiotics-antimycotic solution, were pre-cultured at 37° C. for 30 minutes in Krebs Ringer bicarbonate buffer (KRBH) containing 129.4 mM NaCl, 3.7 mM KCl, 2.7 mM CaCl2, 1.3 mM KH2PO4, 1.3 mM MgSO4, 24.8 mM NaHCO3 (equilibrated with 5% CO2, 95% O2, pH7.4), 10 mM HEPES and 0.2% (v/v) BSA (fraction V) with 3 mM glucose. N ext, the pancreatic islets were incubated for 30 minutes KRBH buffer (500 μl/10 islets) with 3 mM or 20 mM glucose with or without 100 nM Exendin-4 to determine insulin secretion levels. At the end of the incubation period, islets were pelleted by centrifugation, and aliquots of the buffer were sampled. The amounts of insulin were determined by Rat/mouse Insulin ELISA KIT (Millipore) for mice islets.

[4] = Fex 100 mg/kg daily oral gavage, 5 weeks
[5] = Fex 100 mg/kg daily oral gavage, 5 weeks, after 4 hour fast

SMILES: COC(=O)/C=C/c1cccc(N(Cc2ccc(-c3ccc(N(C)C)cc3)cc2)C(=O)C2CCCCC2)c1 [Fexaramine]
- maximum respiration rate induced by FCCP (NCI-H716 cells; L cells, Fex 1 μM for 24 hr, vehicle-treated L cells 130%): 155%
- oxygen consumption rate (OCR) (NCI-H716 cells; human L cells, 24 hours, fexaramine 1 μM, guggulsterone 10 μM): increase
- residual ATP, % of the initial ATP abundance maintained (Human intestinal L cells): 83%
- GLP-1 secretion in response to a glucose challenge [1]: significant increase
- DPP4 expression (enteroendocrinal L cells): no effect
- proglucagon expression (enteroendocrinal L cells): no effect
- SHP expression (FXR target gene) (enteroendocrinal L cells; listed as Fex): induced; also recorded: induction
- core temperature [2, 4]: increase
- glucose tolerance [2, 4]: improved
- gonadal fat (gWAT) tissue weight [2, 4]: modestly but significantly reduced
- hepatic gluconeogenesis/lipogenesis [2, 4]: remarkably suppressed
- insulin sensitivity [2, 4]: improved
- proportion of M2 macrophages in gWAT [2, 4]: increasing
- glucose levels [2, 5]: reduced
- insulin levels [2, 5]: reduced
- respiratory exchange ratio in the dark period ([2]; Fex 100 mg/kg daily oral gavage, 5 weeks, metabolic cages): increased
- time serum glucose levels remained low after cessation of treatment ([2]; monitored for 4 weeks after Fex treatment was stopped): 3 weeks
- ex vivo insulin secretion in response to 20 mM glucose [3]: dramatically increased
- insulin content in ex vivo islets [3]: significantly higher

Reference: patent US20180000768A1, “INTESTINAL FXR AGONISM ENHANCES GLP-1 SIGNALING TO RESTORE PANCREATIC BETA CELL FUNCTIONS” (Salk Institute for Biological Studies, priority 2015, published 2018)
